Results: US8987273B2, “Substituted imidazo[1,2-B]pyridazines” (Bayer Intellectual Property GmbH, priority 2010, dated 2015)
Structures can show the parent of a compound that is named as a salt.

Tests used:
[1] = molecular target: His-tagged human recombinant kinase full-length Akt1 (Homo sapiens (Human), UniProt P31749); assay: Akt1 kinase assay (TR-FRET); type: biochemical; conditions: 10 μM ATP; median
Source text: Akt1 inhibitory activity of compounds of the present invention was quantified employing the Akt1 TR-FRET assay as described in the following paragraphs. His-tagged human recombinant kinase full-length Akt1 expressed in insect cells was purchased form Invitrogen (part number PV 3599). As substrate for the kinase reaction the biotinylated peptide biotin-Ahx-[…] (C-terminus in amide form) was used which can be purchased e.g. from the company Biosynthan GmbH (Berlin-Buch, Germany).
(§1) For the assay 50 nl of a 100 fold concentrated solution of the test compound in DMSO was pipetted into a black low volume 384 well microtiter plate (Greiner Bio-One, Frickenhausen, Germany), 2 μl of a solution of Akt1 in assay buffer [50 mM TRIS/HCl pH 7.5, 5 mM MgCl2, 1 mM dithiothreitol, 0.02% (v/v) Triton X-100 (Sigma)] were added and the mixture was incubated for 15 min at 22° C. to allow pre-binding of the test compounds to the enzyme before the start of the kinase reaction. Then the kinase reaction was started by the addition of 3 μl of a solution of adenosine-tri-phosphate (ATP, 16.7 μM=>final conc. in the 5 μl assay volume is 10 μM) and substrate (1.67 μM=>final conc. in the 5 μl assay volume is 1 μM) in assay buffer and the resulting mixture was incubated for a reaction time of 60 min at 22° C. The concentration of Akt1 in the assay was adjusted depending of the activity of the enzyme lot and was chosen appropriate to have the assay in the linear range, typical enzyme concentrations were in the range of about 0.05 ng/μl (final conc. in the 5 μl assay volume).
(§2) The reaction was stopped by the addition of 5 μl of a solution of HTRF detection reagents (200 nM streptavidine-XL665 [Cisbio] and 1.5 nM anti-phosho-Serine antibody [Millipore, cat. #35-001] and 0.75 nM LANCE Eu-W 1024 labeled anti-mouse IgG antibody [Perkin Elmer]) in an aqueous EDTA-solution (100 mM EDTA, 0.1% (w/v) bovine serum albumin in 50 mM HEPES/NaOH pH 7.5).
(§3) The resulting mixture was incubated 1 h at 22° C. to allow the binding of the biotinylated phosphorylated peptide to the streptavidine-XL665 and the antibodies. Subsequently the amount of phosphorylated substrate was evaluated by measurement of the resonance energy transfer from the anti-mouse-IgG-Eu-Chelate to the streptavidine-XL665. Therefore, the fluorescence emissions at 620 nm and 665 nm after excitation at 350 nm was measured in a HTRF reader, e.g. a Rubystar (BMG Labtechnologies, Offenburg, Germany) or a Viewlux (Perkin-Elmer). The ratio of the emissions at 665 nm and at […] was taken as the measure for the amount of phosphorylated substrate. The data were normalised (enzyme reaction without inhibitor=0% inhibition, all other assay components but no enzyme=100% inhibition).

[2] = test system: phospho-AKT at S473 in KPL4 breast tumour cell line; assay: Cellular p-AKT1/2/3-S473 assay; type: cell-based; conditions: KPL4 cells, 2 hours treatment; median; read-out: pAKT-S743 median IC50
Experimental: The molecular mechanism of action was investigated in a set of experiments to assess the inhibition of the PI3K-AKT-mTOR pathway in responsive cell lines such as KPL4 breast tumour cell line (PIK3CAH1047R, HER2O/E and hormone independent). The phospho-substrates of PI3K-AKT-mTOR axis were used as the read-outs to reflect pathway inhibition. Cells were seeded at 60-80% confluency per well in 96-well cell culture plates. After overnight incubation at 37° C. 5% CO2, cells were treated with compounds and vehicle at 37° C. for 2 hours. […] All measurements where at least done in duplicates and confirmed by independent repetition.
Alternatively pAKT-S473 was measured using the “Akt Duplex” of the MULTI-SPOT® Assay System (Fa. Meso Scale Discovery, Cat# N41100B-1) following manufacturers instructions. Each assay used 20 μg of protein extract and measured total AKT and p-AKT content simultaneously in one well. All measurements where at least done in duplicates and confirmed by independent repetition. Values for P-AKT are expressed as percentage of P-AKT level compared to total-AKT content of the extracts.

KPL-4 cells = assay: Tumor cell proliferation assay (CellTiter-Glo); type: cell-based; conditions: KPL4; 72 h drug exposure
Experimental: Compounds were tested in a cell-based assay that measures the capacity of the compounds to inhibit tumour cell proliferation following a 72 h drug exposure. Cell viability is determined using CellTiter-Glow® (CTG, Promega, cat# G757112/3). The CellTiter-Glo® Luminescent Cell Viability Assay is a homogeneous method to determine the number of viable cells in culture. Detection is based on using the luciferase reaction to measure the amount of ATP from viable cells. The amount of ATP in cells correlates with cell viability. Within minutes after a loss of membrane integrity, cells lose the ability to synthesize ATP, and endogenous ATPases destroy any remaining ATP; thus the levels of ATP fall precipitously.
Cells were plated at 3000-5000 cells/well (depending on the cell lines) in 90 μL growth medium on MTPs (Corning; #3603, black plate, clear flat bottom). For each cell line assayed, cells were plated onto a separate plate for determination of […] at t=0 hour and t=72 hour time points. Following overnight incubation at 37° C., chemiluminescence values for the t=0 samples were determined after adding 10 μl medium and 100 μl CTG solution according to manufacture protocol. Plates for the t=72 hour time points were treated with compounds diluted into growth medium at ten times final concentration added in 10 μL to the cell culture plate. Cells were then incubated for 72 hours at 37° C. Chemiluminescence values for the t=72 hour samples were determined. For data analysis, briefly, data from 24 h plate where used to reflect 100% inhibition of growth (“Ci”) and DMSO control for uninhibited growth (“C0”) and analyzed using MTS software package for IC50 and Hill coefficient. Experiments were controlled using a reference compound as standard.

[3] = molecular target: His-tagged human recombinant kinase full-length Akt2 (Homo sapiens (Human), UniProt P31751); assay: Akt2 kinase assay (TR-FRET); type: biochemical; conditions: 10 μM ATP; median
Chain of His-tagged human recombinant kinase full-length Akt2 (P31751 whole entry): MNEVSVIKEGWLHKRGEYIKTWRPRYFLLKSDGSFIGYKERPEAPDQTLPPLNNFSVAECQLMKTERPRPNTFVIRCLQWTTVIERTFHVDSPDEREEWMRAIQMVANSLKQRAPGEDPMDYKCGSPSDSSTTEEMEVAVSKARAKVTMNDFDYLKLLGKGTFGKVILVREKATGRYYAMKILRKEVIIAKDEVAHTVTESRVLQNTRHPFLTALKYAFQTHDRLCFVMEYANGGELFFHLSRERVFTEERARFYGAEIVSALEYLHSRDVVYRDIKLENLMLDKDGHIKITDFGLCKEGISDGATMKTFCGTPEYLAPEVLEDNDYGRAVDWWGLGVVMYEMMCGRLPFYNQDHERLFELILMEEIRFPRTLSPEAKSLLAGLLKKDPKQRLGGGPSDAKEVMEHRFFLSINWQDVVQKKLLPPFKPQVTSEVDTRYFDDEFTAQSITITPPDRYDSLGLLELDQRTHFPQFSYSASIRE
Source text: Akt2 inhibitory activity of compounds of the present invention was quantified employing the Akt2 TR-FRET assay as described in the following paragraphs.
His-tagged human recombinant kinase full-length Akt2 expressed in insect cells and activated by PDK1 was purchased form Invitrogen (part number PV 3975). As substrate for the kinase reaction the biotinylated peptide biotin-Ahx-[…] (C-terminus in amide form) was used which can be purchased e.g. from the company Biosynthan GmbH (Berlin-Buch, Germany).
as §1, with “Akt2” for “Akt1”, “0.2” for “0.05”
as §2, with “0.1%/w/v\” for “0.1% (w/v)”
as §3, with “TR-FRET” for “HTRF”

Chain of His-tagged human recombinant kinase full-length Akt1 (P31749 whole entry): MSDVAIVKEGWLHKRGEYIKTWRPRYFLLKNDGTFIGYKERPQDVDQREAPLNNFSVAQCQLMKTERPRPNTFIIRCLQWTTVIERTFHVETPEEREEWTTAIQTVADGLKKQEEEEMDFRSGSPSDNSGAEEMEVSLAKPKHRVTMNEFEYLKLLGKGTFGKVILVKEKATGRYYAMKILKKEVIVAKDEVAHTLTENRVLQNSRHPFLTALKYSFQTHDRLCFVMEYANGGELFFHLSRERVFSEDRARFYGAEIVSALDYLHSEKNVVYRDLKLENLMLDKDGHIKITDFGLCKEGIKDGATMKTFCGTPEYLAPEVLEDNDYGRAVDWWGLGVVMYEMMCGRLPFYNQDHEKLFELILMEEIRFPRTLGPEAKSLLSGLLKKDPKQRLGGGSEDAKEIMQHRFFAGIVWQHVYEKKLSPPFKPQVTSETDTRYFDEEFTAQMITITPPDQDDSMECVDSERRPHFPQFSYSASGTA

Row | Compound | IC50 [1] | IC50 [2] | IC50 (KPL-4 cells) | IC50 [3]
1 | NC(=O)c1cccc(-c2cnc3cc(-c4ccccc4)c(-c4ccc(C5(N)CCC5)cc4)nn23)c1 [Example 4-11, 3-{6-[4-(1-Amino-cyclobutyl)-phenyl]-7-phenyl-imidazo[1,2-b]pyridazin-3-yl}-benzamide hydrochloride] | 13 nM | 20 nM | 1410 nM | 68 nM
2 | CCOC(=O)c1cncc(-c2cnc3cc(-c4ccccc4)c(-c4ccc(C5(N)CCC5)cc4)nn23)c1 [Example 4-17, 5-{6-[4-(1-Amino-cyclobutyl)-phenyl]-7-phenyl-imidazo[1,2-b]pyridazin-3-yl}-nicotinic acid ethyl ester] | 7 nM | 60 nM | 6200 nM | 110 nM
3 | NC1(c2ccc(-c3nn4c(-c5ccc(O)nc5)cnc4cc3-c3ccccc3)cc2)CCC1 [Example 4-13, 5-{6-[4-(1-Amino-cyclobutyl)-phenyl]-7-phenyl-imidazo[1,2-b]pyridazin-3-yl}-pyridin-2-ol] | 146 nM | 160 nM | 3360 nM | 431 nM
4 | COC(=O)c1ccc(-c2cnc3cc(-c4ccccc4)c(-c4ccc(C5(N)CCC5)cc4)nn23)cn1 [Example 4-14, 5-{6-[4-(1-Amino-cyclobutyl)-phenyl]-7-phenyl-imidazo[1,2-b]pyridazin-3-yl}-pyridine-2-carboxylic acid methyl ester] | 19 nM | 920 nM | 6020 nM | 115 nM
5 | NC1(c2ccc(-c3nn4c(-c5ccc(S(N)(=O)=O)cc5)cnc4cc3-c3ccccc3)cc2)CCC1 [Example 4-7, 4-{6-[4-(1-Amino-cyclobutyl)-phenyl]-7-phenyl-imidazo[1,2-b]pyridazin-3-yl}-benzenesulfonamide hydrocloride] | 47 nM | 160 nM | 1750 nM | 151 nM
6 | NC1(c2ccc(-c3nn4c(Br)cnc4cc3-c3ccccc3)cc2)CCC1 [Example 4-8, 1-[4-(3-Bromo-7-phenyl-imidazo[1,2-b]pyridazin-6-yl)-phenyl]-cyclobutylamine hydrochloride] | 74 nM | 110 nM | 2380 nM | 264 nM
7 | NC(=O)c1ccc(-c2cnc3cc(-c4ccccc4)c(-c4ccc(C5(N)CCC5)cc4)nn23)cc1 [Example 4-10, 4-{6-[4-(1-Amino-cyclobutyl)-phenyl]-7-phenyl-imidazo[1,2-b]pyridazin-3-yl}-benzamide hydrochloride] | 27 nM | 70 nM | 1260 nM | 118 nM

Continued, values first:

Row | IC50 [1] | IC50 [2] | IC50 (KPL-4 cells) | IC50 [3] | Compound
8 | 5970 nM | 10000 nM | 5280 nM | 10100 nM | COC(=O)/C=C/c1c(C)nc2cc(-c3ccccc3)c(-c3ccc(C4(N)CCC4)cc3)nn12 [Example 11-0, (E)-3-{6-[4-(1-Amino-cyclobutyl)-phenyl]-2-methyl-7-phenyl-imidazo[1,2-b]pyridazin-3-yl}-acrylic acid methyl ester]
9 | 4430 nM | 9170 nM | 2280 nM | 5110 nM | Cc1nc2cc(-c3ccccc3)c(-c3ccc(C4(N)CCC4)cc3)nn2c1-c1ccc(F)cc1 [Example 5-3, 1-{4-[3-(4-Fluorophenyl)-2-methyl-7-phenyl-imidazo[1,2-b]pyridazin-6-yl]-phenyl}-cyclobutylamine]
10 | 44 nM | 30 nM | 1870 nM | 326 nM | C=Cc1cnc2cc(-c3ccccc3)c(-c3ccc(C4(N)CCC4)cc3)nn12 [Example 9-0, 1-[4-(7-Phenyl-3-vinyl-imidazo[1,2-b]pyridazin-6-yl)-phenyl]-cyclobutylamine]
11 | 15000 nM | 10000 nM | 3850 nM | 16800 nM | Cc1nc2cc(-c3ccccc3)c(-c3ccc(C4(N)CCC4)cc3)nn2c1-c1cccc(C(N)=O)c1 [Example 5-0, 3-{6-[4-(1-Amino-cyclobutyl)-phenyl]-2-methyl-7-phenyl-imidazo[1,2-b]pyridazin-3-yl}-benzamide]
